Data reported in patent publication US12729221B2, “Anti-inflammatory peptide and use thereof” (MITO QUEST CO., LTD., priority 2020, dated 2026).
Where no end group is shown, it is not given here.

How the values were obtained:
MAVS proteins = molecular target: T1, MAVS proteins (Mus musculus, UniProt Q8VCF0); assay: MAVS aggregation induced by LPS and nigericin, Western blot of isolated mitochondria; type: cell-based; conditions: 5 mM peptide; IC21; 1 mg/ml LPS 4 hours then 5 mM nigericin 1 hour; vs control group treated with endotoxin and nigericin
T1 construct: mitochondria in IC21 were isolated with a hypotonic buffer and centrifugation; endogenous in cells; host or cells: IC21 mouse peritoneal macrophage cell line
T1 sequence (Q8VCF0 1-503): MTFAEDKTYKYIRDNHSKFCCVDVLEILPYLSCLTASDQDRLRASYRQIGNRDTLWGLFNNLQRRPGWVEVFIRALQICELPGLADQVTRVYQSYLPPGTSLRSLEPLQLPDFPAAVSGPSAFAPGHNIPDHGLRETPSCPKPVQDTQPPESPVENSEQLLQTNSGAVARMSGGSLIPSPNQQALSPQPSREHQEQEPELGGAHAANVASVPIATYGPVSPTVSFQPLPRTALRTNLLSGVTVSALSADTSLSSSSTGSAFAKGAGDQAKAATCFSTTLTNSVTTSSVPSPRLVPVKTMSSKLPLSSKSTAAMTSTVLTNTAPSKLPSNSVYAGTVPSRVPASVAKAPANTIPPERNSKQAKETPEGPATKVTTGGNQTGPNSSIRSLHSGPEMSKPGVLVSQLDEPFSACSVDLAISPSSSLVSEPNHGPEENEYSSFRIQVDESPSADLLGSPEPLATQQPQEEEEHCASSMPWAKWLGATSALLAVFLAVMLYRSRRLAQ
Protocol: Specifically, the aggregation of MAVS proteins was induced by stimulation with pathogen-associated molecular patterns (PAMPs), and endotoxin (lipopolysaccharide (LPS)) and nigericin were used as the PAMPs. First, 5 mM MQP-15, MQP-23, MQP-31 or MQP-37 was added to a serum-free cell culture medium containing 1 mg/ml LPS, followed by treatment with 1×10^5 cells of a mouse peritoneal macrophage cell line (IC21) for 4 hours. Then, 5 mM MQP-15, MQP-23, MQP-31 or MQP-37 was added to a serum-free cell culture medium containing 5 mM nigericin, followed by treatment with IC21 for additional 1 hour. Thereafter, mitochondria in IC21 were isolated with a hypotonic buffer and centrifugation. Then, in order to check the result of MAVS aggregation by the Western blot, a sample was prepared using a semi-denaturing detergent in the isolated mitochondria and electrophoresis was performed. After the electrophoretically isolated mitochondrial protein was transferred to a polyvinylidene difluoride (PVDF) membrane, a primary antibody recognizing the MAVS proteins and a secondary antibody recognizing the primary antibody were additionally treated. Thereafter, the aggregation of MAVS proteins was checked by inducing a chemiluminescence reaction of the secondary antibody.

interferon-beta (IFN-b) = assay: polyIC-induced IFN-b expression in MLE-12 cells, ELISA; type: cell-based, mouse; conditions: 5 mg/ml polyIC, 16 hours; for expression level of IFN-b: vs control group treated only with polyIC
Protocol: Specifically, polyinosinic:polycytidylic acid (polyIC), which is a synthetic ribonucleic acid known to be associated with viral infection among the PAMPs and promotes the production of interferon and is analogous to an RNA virus gene, was used to induce a viral infection response. First, a serum-free cell culture medium containing 5 mg/ml polyIC and MQP-15, MQP-23, MQP-31, MQP-37, MQP-Y9 or MQP-T234 was treated with 1×10^5 cells of a mouse lung epithelial cell line (MLE-12) for 16 hours. Then, the supernatant was obtained and the expression level of interferon-beta (IFN-b) was checked by enzyme-linked immunosorbent assay (ELISA).
(§1) Specifically, LPS and ATP were used to induce an inflammasome response caused by bacterial infection, and polyIC was used to induce an inflammatory response caused by viral infection. First, 1 mg/ml LPS and 5 mM or 1 mM novel alanine-substituted peptide were mixed in a serum-free cell culture medium, followed by treatment with 1×10^5 cells of IC21. Thereafter, 5 mM ATP and 5 mM or 1 mM novel alanine-substituted peptide were mixed in a serum-free cell culture medium and treated for 30 minutes. Then, the supernatant was obtained and the expression level of IL-1b was checked by ELISA. Also, 5 mg/ml polyIC and 25 mM or 2 mM novel alanine-substituted peptide were mixed in a serum-free cell culture medium, followed by treatment with 1×10^5 cells of MLE-12 for 16 hours. Thereafter, the supernatant was obtained and the expression level of IFN-b was checked by ELISA.
as §1, with “2” for “5 mM or 1”, “amino acid-substituted” for “alanine-substituted”, “and” for “and 25 mM or”
Specifically, polyIC was used to induce a viral infection response. First, a serum-free cell culture medium containing 5 mg/ml polyIC and MQP-37, MQP-37A6, MQP-37D6W, MQP-37D6Y, MQP-37D6H, MQP-37D6K, MQP-37D6R or MQP-37D6V was treated with 1×10^5 cells of MLE-12 for 16 hours. Then, the supernatant was obtained and the expression level of IFN-b was checked by ELISA.

IL-1b = assay: LPS/ATP-induced IL-1b expression (inflammasome response) in IC21, ELISA; type: cell-based, mouse; conditions: 1 mg/ml LPS, 5 mM ATP 30 minutes, 2 mM peptide
Protocol: as §1
as §1, with “2” for “5 mM or 1”, “amino acid-substituted” for “alanine-substituted”, “and” for “and 25 mM or”
Specifically, LPS was used to induce an inflammatory response caused by bacterial infection. First, MQP-37 or MQP-37A6 was added to a serum-free cell culture medium containing 0.1 mg/ml LPS, followed by treatment with 1×10^5 cells of IC21 for 6 hours. Then, the supernatant was obtained and the expression level of IL-6 was checked by ELISA. Also, the Western blot was performed and the phosphorylation of NF-κB was checked to identify the mechanism of immune activation response. Thereafter, LPS and ATP were used to induce an inflammasome response caused by bacterial infection, LPS and ATP were used. First, 1 mg/ml LPS and L- or D-MQP-37 and MQP-37A6 were mixed in a serum-free cell culture medium and treated with 1×10^5 cells of IC21. Then, 5 mM ATP and MQP-37 or MQP-37A6 were mixed in a serum-free cell culture medium and treated for 30 minutes. Thereafter, the supernatant was obtained and the expression level of IL-1b was checked by ELISA.

IC21 = assay: XTT cytotoxicity test; type: cell-based, mouse; conditions: at a concentration of 10 mM; FIGS. 4-B and 4-C
Protocol: Specifically, in order to check the cytotoxicity of the peptides, the XTT test method for measuring the activity of mitochondria in cells was used. First, […] 16 hours, followed by XTT assay for 1 hour to measure the amount of water-soluble formazan produced by reduction by dehydrogenase in the mitochondria.

MLE-12 = assay: Cytotoxicity at maximum concentration (Example 13); type: cell-based, mouse; conditions: at the maximum concentration in the experiment; FIG. 13B-F
NF-κB = assay: LPS-induced phosphorylation of NF-kB in IC21, Western blot; type: cell-based, mouse; conditions: 5 mM peptide, 10 ng/ml endotoxin, 6 hours, vs control treated with LPS only
Source text: Specifically, LPS was used to induce an immune activation response caused by bacterial infection, and the phosphorylation of nuclear factor kappa-light-chain-enhancer of activated B cells (NF-kB) was checked to identify the mechanism of the immune activation response. […] Thereafter, the cells were washed with a PBS solution and then lysed with a RIPA buffer, and the supernatant was separated. In order to measure the change in the phosphorylation amount of NF-κB protein with the separated supernatant, the Western blot was performed as in Example 2.

interleukin-6 (IL-6) = assay: LPS-induced IL-6 expression in IC21, ELISA; type: cell-based, mouse; conditions: 0.1 mg/ml LPS, 6 hours
Protocol: Specifically, LPS was used to induce an inflammatory response caused by bacterial infection. First, MQP-15, MQP-23, MQP-31, MQP-37 or MQP-Y9 was added to a serum-free cell culture medium containing 0.1 mg/ml LPS, followed by treatment with 1×10^5 cells of IC21 for 6 hours. Then, the supernatant was obtained and the expression levels of interleukin-6 (IL-6) and a tumor necrosis factor-alpha (TNF-a) were checked by ELISA.

[1] = system: interleukin-1beta (IL-1b); assay: IL-1b expression induced by LPS, OMV or LPS and nigericin in IC21, ELISA; type: cell-based, mouse; conditions: 1 mg/ml LPS 4 hours, 5 mM nigericin 1 hour, FIG. 5B-D
Protocol: Specifically, LPS (lipopolysaccharide) and Gram-negative bacteria-derived outer membrane vesicle (OMV) were used as endotoxins to induce the inflammasome response caused by bacterial infection. First, 5 mM MQP-15, MQP-23, MQP-31 or MQP-37 was added to a serum-free cell culture medium containing 0.1 mg/ml LPS or OMV, followed by treatment with 1×10^5 cells of IC21 for 6 hours. Also, MQP-37 or MQP-Y9 was added to a serum-free cell culture medium containing 1 mg/ml LPS and 5 mM nigericin, followed by treatment for 5 hours (LPS treatment-4 hours; nigericin treatment-1 hour). Then, the supernatant was obtained and the expression level of interleukin-1beta (IL-1b) was checked by ELISA, and the cells were lysed and subjected to SDS-PAGE, and the inflammasome factors were analyzed by the Western blot.

Substance: MQP-31: novel peptide complementary to a MAVS domain sequence (hydropathic complementarity); sequence not tied to the code in the text (DGTECR; MQP-31)
- aggregation of MAVS proteins (MAVS proteins): decreased
- expression level of IFN-b (interferon-beta (IFN-b)): decreased

Substance: MQP-37A1: prepared by substituting the first amino acid of MQP-37A6 with alanine (ALVLADARW; MQP-37A1)
- inflammasome response caused by bacterial infection (IL-1b), first amino acid substituted (IL-1b; FIG. 10A-A): most effectively

Substance: MQP-37D6H: MQP-37 whose sixth amino acid (aspartic acid) is substituted with histidine (SLVLAHARW; MQP-37D6H)
- inflammasome response caused by bacterial infection (IL-1b), sixth amino acid of MQP-37 substituted (IL-1b; FIG. 10A-B): effectively
- inflammatory response caused by viral infection (IFN-b) (interferon-beta (IFN-b); FIGS. 13A-C and 13A-D): inhibited the inflammatory response caused by viral infection in a concentration-dependent manner

Substance: MQP-T234: novel anti-inflammatory peptide prepared in Example 1 (KVGDRARWGSRS; MQP-T234)
- expression level of IFN-b (interferon-beta (IFN-b)): decreased

Substance: SLVLADARW [MQP-37]
- cytotoxicity (XTT) (IC21): did not exhibit any cytotoxicity

Substance: SLVLAYARW [MQP-37D6Y]
- cytotoxicity (MLE-12): did not show cytotoxicity

Substance: MQP-37D6W: MQP-37 whose sixth amino acid (aspartic acid) is substituted with tryptophan (SLVLAWARW; MQP-37D6W)
- inflammatory response caused by viral infection (IFN-b), sixth amino acid of MQP-37 substituted, compared to the original peptide (interferon-beta (IFN-b); 2 mM peptide, FIG. 10B-C): effectively inhibited even at a low peptide concentration
- inhibiting the inflammatory response caused by viral infection (IFN-b), compared to MQP-37 and MQP-37A6 (interferon-beta (IFN-b); concentration-dependent, FIGS. 13A-A and 13A-B): outstanding effect

Substance: MQP-23: novel peptide complementary to a MAVS domain sequence (hydropathic complementarity); sequence not tied to the code in the text (LQHLEDGM; MQP-23)
- aggregation of MAVS proteins (MAVS proteins): decreased
- expression level of IFN-b (interferon-beta (IFN-b)): decreased

Substance: MQP-15: novel peptide complementary to a MAVS domain sequence (hydropathic complementarity); sequence not tied to the code in the text (LKSLKTLH; MQP-15)
- aggregation of MAVS proteins (MAVS proteins): decreased
- expression level of IFN-b (interferon-beta (IFN-b)): decreased

Substance: KRLLFWIFIK [MQP-Y9]
- phosphorylation amount of NF-κB (NF-κB): significantly decreased
- cytotoxicity (XTT) (IC21): did not exhibit any cytotoxicity
- expression level of IL-6 after LPS treatment with various concentrations of peptide (interleukin-6 (IL-6)): decreased in a concentration-dependent manner
- expression level of IFN-b with various concentrations of peptide (interferon-beta (IFN-b)): decreased in a concentration-dependent manner
- expression level of IFN-b (interferon-beta (IFN-b)): decreased
- production of IL-1b after LPS and nigericin treatment [1]: inhibited in an MQP-Y9 concentration-dependent manner
